# Experimental data: patent US20110212199A1, “AGENT FOR TREATING EYE DISEASES” (priority 2003, published 2011)
# Entries after “also recorded” stand apart in the source; their conditions may differ.
# Experiments:
# Format in all cases: in vivo, human
# [1] = tested on: chorioretinal hemorrhage; assay: Example 17: chorioretinal hemorrhage; conditions: person, right eye; 1 mg/l, 1 drop (50 μl) once every morning, with Adona 30 mg a day orally
# [2] = tested on: Mooren's corneal ulcer; assay: Example 18: corneal ulcer; conditions: person, right eye; 1 mg/l, 1 drop (50 μl) twice a day
# Description: Thus, it can be considered that treatment of autoimmune disease is possible.
# [3] = tested on: schizophrenia; assay: Example 22: central nerve diseases (schizophrenia patient)
# [4] = tested on: chorioretinal atrophy; assay: Example 23: chorioretinal atrophy; conditions: person, 1 mg/l
# [5] = tested on: dynamic visual acuity; assay: Example 26: dynamic visual acuity; conditions: person, left eye; 10 μg/ml, 50 μl one time; 30 minutes to 1 hour and 15 minutes after dropping
# [6] = tested on: epidemic keratoconjunctivitis; assay: Example 29: epidemic keratoconjunctivitis
smiles,measurement,setting,value
C[C@]12CC[C@@H]3c4ccc(O)cc4CC[C@H]3[C@@H]1CC[C@@H]2O [17β-estradiol],time until hemorrhage disappeared,[1],45 days
same,time in which the disease was cured,[2],3 weeks
same,visual acuity Vs,"[3]; after 14 days, initiation 0.09",Vs = 0.1 × IOL (0.1)
same,Vs vision after correction,"[3]; after 14 days, initiation 0.1",Vs = 0.1 × IOL (0.1)
same,Vs vision after correction,[3]; after 42 days,0.1
same,visual acuity Vs,[3]; after 42 days,0.09
same,Vs vision after correction,[3]; after 77 days,0.15
same,visual acuity Vs,[3]; after 77 days,0.1
same,Vs vision after correction,[3]; after 115 days,0.2
same,visual acuity Vs,[3]; after 115 days,0.09
same,mental state,"[3]; patient's statement after 42 days, overall",improvement in mental state; also recorded: be encouraged
same,"vision after correction, left eye","[4]; 1 drop (50 μl) once a day for 1 month, before 0.1",0.3
same,"vision after correction, right eye","[4]; 50 μl once a day for 1 month, before 0.08 (n·c)",0.2
same,dynamic visual acuity (KV-100),[5],abruptly improved
same,eye discharge,"[6]; 1 mg/l once a day, fourth day",eye discharge was increased
same,keratitis superficialis diffusa,"[6]; person, 1 mg/l, 1 drop (50 μl) once a day",cured at the fourth day
